The target of series [1] is T1, CYP1C1 (Danio rerio, UniProt A0PJ31).
T1 sequence (A0PJ31 1-523): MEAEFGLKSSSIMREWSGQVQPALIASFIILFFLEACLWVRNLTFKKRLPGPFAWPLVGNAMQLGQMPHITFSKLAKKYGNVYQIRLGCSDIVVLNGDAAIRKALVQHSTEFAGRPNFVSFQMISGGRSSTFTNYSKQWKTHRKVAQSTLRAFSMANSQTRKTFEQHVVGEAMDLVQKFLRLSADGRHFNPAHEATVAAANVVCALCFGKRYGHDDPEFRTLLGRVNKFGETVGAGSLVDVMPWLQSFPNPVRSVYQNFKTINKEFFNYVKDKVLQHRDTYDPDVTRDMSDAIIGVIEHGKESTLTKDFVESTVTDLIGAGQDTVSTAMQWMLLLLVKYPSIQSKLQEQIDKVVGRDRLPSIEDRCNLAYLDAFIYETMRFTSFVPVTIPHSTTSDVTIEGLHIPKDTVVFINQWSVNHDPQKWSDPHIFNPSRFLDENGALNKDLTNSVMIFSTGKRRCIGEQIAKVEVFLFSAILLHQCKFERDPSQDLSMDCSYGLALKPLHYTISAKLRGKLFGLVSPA
It counts as cell-based.

The target of series [2] is T1, CYP1C1. Nature of the series: kcat for O-demethylation. The series is classed as cell-based.
In the next series the target is T2, CYP1A (Danio rerio, UniProt A0A8M1PCF4).
T2 sequence (A0A8M1PCF4 1-519): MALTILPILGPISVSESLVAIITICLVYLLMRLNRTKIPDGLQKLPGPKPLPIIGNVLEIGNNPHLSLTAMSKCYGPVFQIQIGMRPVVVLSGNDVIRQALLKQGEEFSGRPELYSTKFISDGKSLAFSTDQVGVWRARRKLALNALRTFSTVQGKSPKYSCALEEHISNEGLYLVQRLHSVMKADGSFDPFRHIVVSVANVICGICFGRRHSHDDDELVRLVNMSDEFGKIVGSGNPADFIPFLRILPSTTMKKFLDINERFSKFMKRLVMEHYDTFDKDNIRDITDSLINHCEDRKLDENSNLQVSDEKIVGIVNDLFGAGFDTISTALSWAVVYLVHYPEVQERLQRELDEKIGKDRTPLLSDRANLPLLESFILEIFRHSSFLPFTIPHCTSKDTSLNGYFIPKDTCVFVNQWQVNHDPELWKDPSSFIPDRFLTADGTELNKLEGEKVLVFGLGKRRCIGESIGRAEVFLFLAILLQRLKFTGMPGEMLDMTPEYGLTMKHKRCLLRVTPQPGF
The series is described as follows: O-deethylation rate. It counts as cell-based.

A further series has as its target T3, CYP1D1 (Danio rerio, UniProt A0ACM8Q602).
T3 sequence (A0ACM8Q602 1-512): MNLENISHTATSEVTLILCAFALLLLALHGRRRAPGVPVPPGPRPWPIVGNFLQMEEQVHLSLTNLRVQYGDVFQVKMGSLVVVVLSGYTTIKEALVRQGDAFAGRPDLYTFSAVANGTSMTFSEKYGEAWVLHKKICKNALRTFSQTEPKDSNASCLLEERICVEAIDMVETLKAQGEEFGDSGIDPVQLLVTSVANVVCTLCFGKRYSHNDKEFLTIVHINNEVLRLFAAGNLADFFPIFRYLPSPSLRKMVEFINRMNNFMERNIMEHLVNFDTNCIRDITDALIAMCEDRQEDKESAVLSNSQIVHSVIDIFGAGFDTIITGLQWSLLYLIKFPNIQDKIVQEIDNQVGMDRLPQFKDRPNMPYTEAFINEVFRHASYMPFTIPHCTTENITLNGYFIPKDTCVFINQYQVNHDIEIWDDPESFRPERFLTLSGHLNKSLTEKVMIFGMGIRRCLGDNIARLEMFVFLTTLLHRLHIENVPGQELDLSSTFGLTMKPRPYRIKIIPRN
It counts as biochemical.

Series [3] addresses T1, CYP1C1. It counts as biochemical.
The target in a further series is T4, CYP1C2 (Danio rerio, UniProt A0AC58HLV5).
T4 sequence (A0AC58HLV5 1-514): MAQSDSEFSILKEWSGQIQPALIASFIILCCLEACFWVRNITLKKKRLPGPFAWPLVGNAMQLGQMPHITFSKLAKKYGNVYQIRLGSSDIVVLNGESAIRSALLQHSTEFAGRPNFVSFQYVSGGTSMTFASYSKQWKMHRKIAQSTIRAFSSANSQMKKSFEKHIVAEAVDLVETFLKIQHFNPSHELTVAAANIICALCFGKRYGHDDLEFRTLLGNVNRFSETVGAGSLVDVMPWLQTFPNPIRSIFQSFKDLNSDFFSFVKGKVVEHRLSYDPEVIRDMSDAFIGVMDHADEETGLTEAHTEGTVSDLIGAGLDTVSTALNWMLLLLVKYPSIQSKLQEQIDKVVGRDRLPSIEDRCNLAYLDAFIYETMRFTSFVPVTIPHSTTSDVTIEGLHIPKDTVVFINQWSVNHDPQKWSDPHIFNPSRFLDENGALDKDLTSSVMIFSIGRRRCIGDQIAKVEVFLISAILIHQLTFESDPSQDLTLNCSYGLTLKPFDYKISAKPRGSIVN
T4 sequence (P16603 2-691 partner): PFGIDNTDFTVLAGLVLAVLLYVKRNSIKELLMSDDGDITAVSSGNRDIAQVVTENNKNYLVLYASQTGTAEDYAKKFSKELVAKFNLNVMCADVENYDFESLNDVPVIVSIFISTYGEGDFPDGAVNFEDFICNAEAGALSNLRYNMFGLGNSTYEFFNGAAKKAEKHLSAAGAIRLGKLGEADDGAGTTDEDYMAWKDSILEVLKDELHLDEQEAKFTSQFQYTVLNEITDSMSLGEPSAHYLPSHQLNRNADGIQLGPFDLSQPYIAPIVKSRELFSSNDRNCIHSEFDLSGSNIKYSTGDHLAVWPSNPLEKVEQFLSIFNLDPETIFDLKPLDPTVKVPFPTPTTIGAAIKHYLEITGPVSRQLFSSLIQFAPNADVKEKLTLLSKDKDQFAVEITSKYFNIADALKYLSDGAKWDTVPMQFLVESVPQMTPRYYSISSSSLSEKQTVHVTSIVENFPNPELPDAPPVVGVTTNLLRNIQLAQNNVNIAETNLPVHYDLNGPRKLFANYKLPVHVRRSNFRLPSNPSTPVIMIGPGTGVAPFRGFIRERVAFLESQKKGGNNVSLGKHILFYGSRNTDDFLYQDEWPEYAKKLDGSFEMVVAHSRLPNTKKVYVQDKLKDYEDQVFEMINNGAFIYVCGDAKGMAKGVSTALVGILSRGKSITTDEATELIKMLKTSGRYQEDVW
It counts as biochemical.

Substrate in the series “Km for O-deethylation”: CCOc1ccc2nc3ccc(=O)cc-3oc2c1
The series is described as follows: Km for O-deethylation. The series is classed as biochemical, Danio rerio. The following applies: heme; NADPH.

Results on 6 molecules are retold here after paper PMC4587093 (Biochimica et biophysica acta, 2015).

Regarding `CCOc1ccc2c(C(F)(F)F)cc(=O)oc2c1` [EFC, 7-ethoxy-4-trifluoromethyl-coumarin], the “kcat (mol substrate oxidized/mol P450/min) ^a / EFC ^c, ^d” value at CYP1C1 [1] is listed as 1.51 ± 0.14 mol substrate oxidized/mol P450/min.
Turning to `COc1ccc2nc3ccc(=O)cc-3oc2c1` [MR, 7-methoxyresorufin], the “kcat (mol substrate oxidized/mol P450/min) ^b / MR” value on CYP1C1 [2] is given as 4.9 ± 0.6 mol substrate oxidized/mol P450/min.
With `CCOc1ccc2nc3ccc(=O)cc-3oc2c1` [ER, 7-ethoxyresorufin], the “CYP expressed via pYES/DEST52 ^a / 1A” value at CYP1A is given as 89.3 ± 1.9 pmol min^−1 mg^−1 microsomal protein.
On to `c1ccc2c(c1)cc1ccc3cccc4ccc2c1c34` [BaP, benzo[a]pyrene], for which the Ki turned out to be 12000 nM at CYP1D1, 60 nM at CYP1C1 [3] and 200 nM on CYP1C2.

B1: CYP1C2 (Danio rerio) (protein)
chain: T4 sequence (A0AC58HLV5 1-514)
Consider B1, for which the Km in the series “Km for O-deethylation” was found to be 0.11 ± 0.01 µM.

B2: CYP1C1 (Danio rerio) (protein)
chain: T1 sequence (A0PJ31 1-523)
In the case of B2, in the series “Km for O-deethylation”, the Km came out at 0.085 ± 0.005 µM.
